Test results taken from article PMC6028563, “Probing Substituents in the 1- and 3-Position: Tetrahydropyrazino-Annelated Water-Soluble Xanthine Derivatives as Multi-Target Drugs With Potent Adenosine Receptor Antagonistic Activity” (Frontiers in Chemistry, 2018).
Read-outs that look alike come from different tables or passages of the source.

Assays:
[1] = target: T1, rat A1 AR (Rattus norvegicus, UniProt P25099); assay: Radioligand binding assay at rat A1 AR (rat brain cortex) vs. [^3H]CCPA; details: rat (r); for Ki: rat brain cortex, n = 3
T1 construct: A1 ARs of rat brain cortical membrane; from tissue; host or cells: rat brain cortex membranes
T1 sequence (P25099 1-326): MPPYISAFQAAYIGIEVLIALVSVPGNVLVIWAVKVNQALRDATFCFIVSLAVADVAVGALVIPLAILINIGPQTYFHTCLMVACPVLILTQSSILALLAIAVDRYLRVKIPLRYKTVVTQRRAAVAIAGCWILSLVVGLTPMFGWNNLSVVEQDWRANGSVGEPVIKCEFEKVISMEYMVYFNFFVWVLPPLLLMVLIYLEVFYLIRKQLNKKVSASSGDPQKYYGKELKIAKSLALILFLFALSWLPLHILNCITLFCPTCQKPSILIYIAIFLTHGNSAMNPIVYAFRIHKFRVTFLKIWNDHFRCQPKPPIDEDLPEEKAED
How it was run: (§1)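 Membranes were prepared from rat brain cortex for A1 and from rat striatum for A2A, then used in radioligand displacement. For the human receptors, CHO cells recombinantly expressing a single AR subtype supplied the membranes.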

[2] = target: T2, recombinant human MAO-A (Homo sapiens, UniProt P21397); assay: Monoamine oxidase assay (Amplex Red), MAO-A; assay type: biochemical; details: for inhibition at 10 µM: at 10,000 nM, read-out: % inhibition at indicated concentration, Human MAO-A; for IC50: n = 3, read-out: IC50 ± SEM, Human MAO-A
T2 construct: purchased Sigma-Aldrich M7316; host or cells: baculovirus-infected insect cells
T2 sequence (P21397 1-527): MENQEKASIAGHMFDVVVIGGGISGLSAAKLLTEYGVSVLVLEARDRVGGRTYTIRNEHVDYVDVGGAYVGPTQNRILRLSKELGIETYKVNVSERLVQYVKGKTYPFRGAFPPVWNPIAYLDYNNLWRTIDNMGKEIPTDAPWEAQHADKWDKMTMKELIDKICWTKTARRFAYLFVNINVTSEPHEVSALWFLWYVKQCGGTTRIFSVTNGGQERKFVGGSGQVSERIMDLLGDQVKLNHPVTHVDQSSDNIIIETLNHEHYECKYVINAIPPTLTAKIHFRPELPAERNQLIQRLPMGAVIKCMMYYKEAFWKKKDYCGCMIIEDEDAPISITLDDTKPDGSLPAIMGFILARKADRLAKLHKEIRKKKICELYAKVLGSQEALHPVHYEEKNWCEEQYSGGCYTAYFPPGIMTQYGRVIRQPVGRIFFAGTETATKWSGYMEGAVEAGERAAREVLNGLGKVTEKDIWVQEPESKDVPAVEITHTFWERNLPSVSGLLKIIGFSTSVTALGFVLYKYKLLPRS
How it was run: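 Recombinant human MAO-A and MAO-B, expressed in baculovirus-infected insect cells, were assayed by Amplex Red fluorometric detection. Rat MAO-B inhibition used mitochondria-enriched fractions from male Sprague Dawley rat liver.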

[3] = target: T3, human A2A AR (Homo sapiens, UniProt P29274); assay: Radioligand binding assay at human A2A AR vs. [^3H]MSX-2; details: CHO cell membranes, n = 3, read-out: Ki ± SEM, A2A vs. [^3H]MSX-2
T3 construct: expressed in transfected cells; host or cells: CHO cells
T3 sequence (P29274 whole entry): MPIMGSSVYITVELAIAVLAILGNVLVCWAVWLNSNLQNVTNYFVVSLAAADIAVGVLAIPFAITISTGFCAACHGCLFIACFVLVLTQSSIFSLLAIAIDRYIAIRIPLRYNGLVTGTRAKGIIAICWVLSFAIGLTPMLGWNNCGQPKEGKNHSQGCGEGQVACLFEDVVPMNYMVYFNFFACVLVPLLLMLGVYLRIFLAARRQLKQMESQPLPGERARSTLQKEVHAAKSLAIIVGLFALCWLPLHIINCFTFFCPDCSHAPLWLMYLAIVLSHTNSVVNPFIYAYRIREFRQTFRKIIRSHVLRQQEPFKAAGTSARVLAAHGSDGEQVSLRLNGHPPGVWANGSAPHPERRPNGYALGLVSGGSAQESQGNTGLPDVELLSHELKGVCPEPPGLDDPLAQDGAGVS
How it was run: as §1

[4] = Thermodynamic solubility measurements; assay type: physicochemical; details: thermodynamic from solid
From the text: This is expected to facilitate dissolution in the stomach. Depending on the substitution pattern they may also be well soluble at higher pH values (Brunschweiger et al., [2014]). In the present study we measured thermodynamic solubility of only very few compounds exemplarily (14a-e, 14g, 15f,g) and confirmed their high solubility at pH 1 (see Table S1 in Supplementary Material). Most of these compounds were still soluble at pH 7.4. The best soluble derivative was the 3-ethyl-1-methyl-8-m-fluorobenzyl derivative 14g with solubilities of >1.5 g/L (4.2 mM) at pH 1, 50 mg/L (0.14 mM) at pH 4, and 40 mg/L ([…]) at pH 7.4.
Table S1. Solubility of selected compounds at three different pH values (in mg/mL).a
Compound pH 1 pH 4 pH 7.4
adetermined by thermodynamic solubility measurements.

| Structure (SMILES) | Ki [1] | inhibition at 10 µM [2] | IC50 [2] | Ki [3] | also measured |
| --- | --- | --- | --- | --- | --- |
| C#CCn1c(=O)c2c(nc3n2CCN(c2cccc(OC)c2)C3)n(CC)c1=O [Compound 20c, 1-ethyl-8-(3-methoxyphenyl)-3-propargyl-6,7,8,9-tetrahydropyrazino[2,1-f]purine-2,4(1H,3H)-dione] | 328 ± 70 nM | 6% | > 10000 nM | 289 ± 85 nM |  |
| CCn1c(=O)c2c(nc3n2CCN(Cc2cc(C(F)(F)F)ccc2Cl)C3)n(CC)c1=O [Compound 15n, 8-(2-chloro-5-(trifluoromethyl)benzyl)-1,3-diethyl-6,7,8,9-tetrahydropyrazino[2,1-f]purine-2,4(1H,3H)-dione] | 19.6 ± 3 nM | -4% | > 10000 nM | 613 ± 34 nM |  |
| CCn1c(=O)c2c(nc3n2CCN(Cc2cc(Br)ccc2F)C3)n(CC)c1=O [Compound 15l, 8-(5-bromo-2-fluorobenzyl)-1,3-diethyl-6,7,8,9-tetrahydropyrazino[2,1-f]purine-2,4(1H,3H)-dione] | 33.5 ± 5.6 nM | 8% | > 10000 nM | 598 ± 92 nM |  |
| CCn1c(=O)n(C)c(=O)c2c1nc1n2CCN(Cc2cc(Cl)cc(Cl)c2)C1 [Compound 16b, 8-(3,5-dichlorobenzyl)-1-ethyl-3-methyl-6,7,8,9-tetrahydropyrazino[2,1-f]purine-2,4(1H,3H)-dione] | 49.3 ± 8 nM | 8% | > 10000 nM | 2230 nM |  |
| C#CCn1c(=O)c2c(nc3n2CCN(Cc2ccc(Cl)c(Cl)c2)C3)n(C)c1=O [Compound 19a, 8-(3,4-dichlorobenzyl)-1-methyl-3-propargyl-6,7,8,9-tetrahydropyrazino[2,1-f]purine-2,4(1H,3H)-dione] | 292 ± 21 nM | 12% | > 10000 nM | 1580 nM |  |
| CCn1c(=O)c2c(nc3n2CCN(Cc2cccc(C(F)(F)F)c2F)C3)n(C)c1=O [Compound 14l, 3-ethyl-8-(2-fluoro-3-(trifluoromethyl)benzyl)-1-methyl-6,7,8,9-tetrahydropyrazino[2,1-f]purine-2,4(1H,3H)-dione] | 236 ± 57 nM | 8% | > 10000 nM | 2020 nM |  |
| CCn1c(=O)c2c(nc3n2CCN(Cc2cccc(Br)c2)C3)n(C)c1=O [Compound 14b, 8-(3-bromobenzyl)-3-ethyl-1-methyl-6,7,8,9-tetrahydropyrazino[2,1-f]purine-2,4(1H,3H)-dione] | 28.8 ± 1.5 nM |  |  |  | solubility ([4]; aqueous buffer, pH 4, thermodynamic solubility, read-out: Solubility, pH 4): 1 µg/mL; solubility ([4]; aqueous buffer, pH 7.4, thermodynamic solubility, read-out: Solubility, pH 7.4): 0.9 µg/mL; solubility ([4]; simulated gastric fluid, pH 1, thermodynamic solubility, read-out: Solubility, pH 1): 100 µg/mL |
| CCn1c(=O)n(C)c(=O)c2c1nc1n2CCN(Cc2ccc(Cl)c(Cl)c2)C1 [Compound 16a, 8-(3,4-dichlorobenzyl)-1-ethyl-3-methyl-6,7,8,9-tetrahydropyrazino[2,1-f]purine-2,4(1H,3H)-dione] | 236 ± 23 nM | 6% | > 10000 nM | 1620 nM |  |
| CCn1c(=O)c2c(nc3n2CCN(Cc2cccc(F)c2)C3)n(C)c1=O [Compound 14g, 3-ethyl-8-(3-fluorobenzyl)-1-methyl-6,7,8,9-tetrahydropyrazino[2,1-f]purine-2,4(1H,3H)-dione] | 59.4 ± 7.7 nM |  |  |  | solubility ([4]; aqueous solution, aqueous buffer, pH 4, molar value in brackets, read-out: solubility at pH 4): 140 µM; solubility ([4]; aqueous solution, aqueous buffer, pH 4, read-out: solubility at pH 4): 50 µg/mL; solubility ([4]; aqueous solution, aqueous buffer, pH 7.4, molar value in brackets, read-out: solubility at pH 7.4): 84 µM; solubility ([4]; aqueous solution, aqueous buffer, pH 7.4, read-out: solubility at pH 7.4): 40 µg/mL; solubility ([4]; aqueous solution, simulated gastric fluid, pH 1, molar value in brackets, read-out: solubility at pH 1): > 4200 µM; solubility ([4]; aqueous solution, simulated gastric fluid, pH 1, read-out: solubility at pH 1): > 1500 µg/mL |
| CCn1c(=O)c2c(nc3n2CCN(Cc2cc(Cl)ccc2Cl)C3)n(C)c1=O [Compound 14j, 8-(2,5-dichlorobenzyl)-3-ethyl-1-dimethyl-6,7,8,9-tetrahydropyrazino[2,1-f]purine-2,4(1H,3H)-dione] | 36.9 ± 6.1 nM | 23% | > 10000 nM | 906 ± 73 nM |  |
| CCn1c(=O)c2c(nc3n2CCN(Cc2cc(C(F)(F)F)ccc2Cl)C3)n(C)c1=O [Compound 14m, 8-(2-chloro-5-(trifluoromethyl)benzyl)-3-ethyl-1-methyl-6,7,8,9-tetrahydropyrazino[2,1-f]purine-2,4(1H,3H)-dione] | 76.2 ± 9 nM | 9% | > 10000 nM | 881 ± 96 nM |  |
| C#CCn1c(=O)c2c(nc3n2CCN(Cc2cc(C(F)(F)F)ccc2Cl)C3)n(C)c1=O [Compound 19b, 8-(2-chloro-5-(trifluoromethyl)benzyl)-1-methyl-3-propargyl-6,7,8,9-tetrahydropyrazino[2,1-f]purine-2,4(1H,3H)-dione] | 153 ± 10 nM | 5% | > 10000 nM | 712 ± 129 nM |  |
| CCn1c(=O)c2c(nc3n2CCN(Cc2cc(F)c(F)c(F)c2)C3)n(CC)c1=O [Compound 15r, 1,3-diethyl-8-(3,4,5-trifluorobenzyl)-6,7,8,9-tetrahydropyrazino[2,1-f]purine-2,4(1H,3H)-dione] | > 1500 nM | 7% | > 10000 nM | 4110 nM | inhibition at 1.5 µM ([1]; read-out: % inhibition of radioligand binding at indicated concentration, A1 vs. [^3H]CCPA, at 1,500 nM): 25% |
| CCn1c(=O)c2c(nc3n2CCN(Cc2cc(Br)ccc2F)C3)n(C)c1=O [Compound 14o, 8-(5-bromo-2-fluorobenzyl)-3-ethyl-1-methyl-6,7,8,9-tetrahydropyrazino[2,1-f]purine-2,4(1H,3H)-dione] | 36 ± 18.4 nM | 15% | > 10000 nM | 1700 nM |  |
| CCn1c(=O)c2c(nc3n2CCN(Cc2ccc(F)c(Br)c2)C3)n(CC)c1=O [Compound 15k, 8-(3-bromo-4-fluorobenzyl)-1,3-diethyl-6,7,8,9-tetrahydropyrazino[2,1-f]purine-2,4(1H,3H)-dione] | 270 ± 60 nM | -10% | > 10000 nM | 756 ± 271 nM |  |
| CCn1c(=O)c2c(nc3n2CCN(Cc2cc(C(F)(F)F)ccc2F)C3)n(CC)c1=O [Compound 15j, 1,3-diethyl-8-(2-fluoro-5-(trifluoromethyl)benzyl)-6,7,8,9-tetrahydropyrazino[2,1-f]purine-2,4(1H,3H)-dione] | 124 ± 21 nM | 7% | > 10000 nM | 781 ± 68 nM |  |
| Cn1c(=O)c2c(nc3n2CCN(Cc2ccc(Cl)c(Cl)c2)C3)n(C2CC2)c1=O [Compound 17, 8-(3,4-dichlorobenzyl)-1-cyclopropyl-3-methyl-6,7,8,9-tetrahydropyrazino[2,1-f]purine-2,4(1H,3H)-dione] | 584 ± 8 nM | 7% | > 10000 nM |  |  |
| CCn1c(=O)c2c(nc3n2CCN(Cc2cc(Cl)cc(Cl)c2)C3)n(CC)c1=O [Compound 15m, 8-(3,5-dichlorobenzyl)-1,3-diethyl-6,7,8,9-tetrahydropyrazino[2,1-f]purine-2,4(1H,3H)-dione] | 89.6 ± 21.4 nM | 1% | > 10000 nM | 631 ± 122 nM |  |
